This assay concerns Cotton. Kind of assay: Defoliation of cotton by ethephon with and without muratic acid, field trial Bells TN October 2003. Type of assay: in vivo. The following applies: for Cotton LEAF DEFOLIATION 3 DA-A: rating date Oct. 13, 2003, 3 days after application; for Cotton LEAF DEFOLIATION 6 DA-A: rating date Oct. 16, 2003, 6 days after application. From the text:
A preferred mixture would be […] 10%-20% and Phosphoric Acid 1%-40%. This formulation would then be mixed with water as a carrier and applied to the foliage of the target plant at a rate of 3 gallons/Acre to 30 gallons/Acre.

Where [1] appears, read: ethephon 16 FL OZ/A (muratic acid 4 % V/V where combined).
[2] abbreviates: ethephon 32 FL OZ/A (muratic acid 4 % V/V where combined).

Turning to `Cl` [Muratic Acid], for the setting “summary in words of Table 1”, the “Effect of added acid on efficacy of ethephon and speed of the effect on cotton defoliation” value was “increased the efficacy of ethephon and the speed of the effect”.

As to `O=P(O)(O)CCCl` [ETHEPHON, (2-chloroethyl)phosphonic acid], the “Cotton LEAF DEFOLIATION 3 DA-A” value under setting [1] was 10.8% and the “Cotton LEAF DEFOLIATION 3 DA-A” value under setting [2] came to 16.7%. For the same compound, the “Cotton LEAF DEFOLIATION 6 DA-A” value amounted to 19.6% under setting [1] and 16.7% under setting [2].

The values are drawn from US20050124494A1, “Compositions comprising a phosphonic compound, and acids as methods for plant growth and regulatory effects” (priority 2003, published 2005).
